# Entries after “also recorded” stand apart in the source; their conditions may differ.
# Columns and labels:
# [1] = test system: Ptpn11^D61G/+ X WT breeder; experiment: Progeny from prenatal dasatinib treated Ptpn11D61G/+ X WT breeder
# Protocol: (§1) Vehicle-injected mice served as control.
# Dasatinib was administered into pregnant mothers and amelioration of cardiac defects in NS mice was assessed. Dasatinib was administered at 0.1, 0.5 or 1.0 mg/kg daily interperitoneally into wild type pregnant mice intercrossed with NS mice, beginning at embryonic day 7 until postnatal day 9 (in nursing females). After postnatal day 10 (P10), dasatinib injections resumed directly into individual pups daily until 8-weeks (P56) after birth (FIG. 14a).
# Ptpn11^D61G/+ mice [2] = experiment: Heart weight and histology (Masson's trichrome) after postnatal dasatinib; type: in vivo; conditions: NS mice
# Protocol: (§2) FIG. 15, comprising FIG. 15a-15j, is a panel of images showing cardiomyopathy and cardiac fibrosis in Ptpn11^D61G/+ mice rescued by dasatinib. […] FIG. 15e is a graph showing relative expression of fibrosis marker gene, Col1a2. […] FIG. 15f is a graph showing relative expression of fibrosis marker gene, Col3a1. FIG. 15g is a graph showing relative expression of cardiac fetal gene, Myh6 (αMHC). FIG. 15h is a graph showing relative expression of cardiac fetal gene, Myh7 (βMHC). FIG. 15i is a graph showing relative expression of cardiac fetal gene, Anf. FIG. 15j is a graph showing relative expression of cardiac fetal gene, Bnp. The genes were measured by quantitative RT-PCR (n=6 for each group). […] (Two-way ANOVA test).
# [3] = test system: WT and Ptpn11^D61G/+ mice; experiment: Invasive hemodynamic study, postnatal dasatinib treatment; type: in vivo
# Protocol: as §1
# Hemodynamic Study—Anesthesia was induced by intraperitoneal injection of ketamine (100 mg/kg) and xylazine (5 mg/kg). The animal was placed on a warm pad and an incision was made on the neck. The right side carotid artery was exposed and a 1.9-French transducer-tipped catheter (Millar Inc., Houston, Tex.) was inserted into the artery, and then was advanced into left ventricle. Left ventricular pressures including high-fidelity positive, negative dp/dt and heart rate were measured under basal conditions. Data were recorded and analyzed by using LabChart software.
# Ptpn11^D61G/+ mice [4] = experiment: Growth, facial dysmorphia and splenomegaly after postnatal dasatinib; type: in vivo; conditions: postnatal 0.1 mg/kg/day, NS mice
# Text: Differences within treatment groups were significant (p<0.001, Two-way ANOVA test) from 3-weeks to 8-weeks old. FIG. 19b is a graph showing body weight measured at P42. FIG. 19c is a graph showing body length measured at P42. FIG. 19d is a graph showing body weight measured at P56. […]. FIG. 19e is a graph showing body length measured at P56.
# (n=10˜16 for each group; Two-way ANOVA test).
# All data represent mean±SEM. *, p<0.05; ***, p<0.001.
# as §1
# Ptpn11^D61G/+ mice [5] = experiment: Heart tissue immunoblot for SERCA2A, Troponin I, Troponin T; type: in vivo; conditions: postnatal dasatinib; NS mice
# Text: Representative traces of cardiomyocyte dynamics for calcium transient traces (top) and their corresponding sarcomere leng shortening traces (bottom). FIG. 16b is a graph showing a summary of the data of relative calcium release (Rmag Ca^2+). FIG. 16c is a graph showing the fraction of sarcomere shortening (n=111˜162 cells from 3 mice for each group). FIG. 16d is an image showing heart tissue immunoblotted with anti-SERCA2A, Troponin I (tTnI), Troponin T (tTnT) and Tubulin antibodies. […] FIG. 16e is a graph showing SERCA2A expression. FIG. 16f is a graph showing Troponin I expression. FIG. 16g is a graph showing Troponin T. Expression was statistically assessed after normalization with tubulin (n=6 for each group).
# Immunoprecipitation and Immunoblotting—Cells or heart tissue were lysed on ice in lysis buffer (25 mM Tris-HCl, pH 7.4, 136 mM NaCl, 1 mM CaCl2, 1 mM MgCl2, 1% Nonidet P-40, 1 mM Na3VO4, 10 mM NaF, 1 mM benzamidine, 1 mM PMSF, 1 μg/ml pepstatin A, 5 μg/ml aprotinin, and 5 μg/ml leupeptin). Cell or tissue lysates were incubated at 4° C. for 30 min and clarified by centrifugation at 14,000 rpm at 4° C. for 10 min. Protein concentration was determined using the BCA reagent according to the manufacturer's instructions (Pierce). For immunoprecipitations, 500 μg of lysate was incubated with 1 μg of indicated antibodies at 4° C. for overnight. […]
# [6] = cited from earlier work
# Ptpn11^D61G/+ mice [7] = experiment: Quantitative RT-PCR of heart RNA, NS mice, postnatal dasatinib; type: in vivo; conditions: P56
# Protocol: as §2
# RNA Extraction and Quantitative Real-Time PCR Analysis—RNA was isolated from mice heart using an RNeasy kit (Qiagen, CA) according to the manufacturer's instructions. A total of 1 μg RNA was reverse transcribed to generate cDNA using a reverse transcriptase PCR kit (Applied Biosystems, CA). Real-time quantitative PCR was carried out in triplicate using the Applied Biosystems 7500 Fast real-time PCR system and SYBR green gene expression master mix with following primer pairs.
# All relative gene expression levels were analyzed using the ΔCT method and normalized to 18S rRNA expression.
# [8] = test system: WT and Ptpn11^D61G/+ mice; experiment: Liver damage (H&E histology, serum ALT) after postnatal dasatinib; conditions: postnatal 0.1 mg/kg/day; wild type or NS mice; monohydrate
# Text: All data present mean±SEM. *, p<0.05; ***, p<0.001. (n=7˜10 for each group; Two-way ANOVA test).
# Histology—Heart, liver and spleen were isolated from vehicle- or dasatinib-treated wild type and NS mice. Tissues were fixed in 4% paraformaldehyde in phosphate-buffer saline (PBS), processed for paraffin sections and stained with hematoxylin and eosin (H&E) or Masson's Trichrome. Tissue images were obtained under bright field microscopy (Olympus BX51, Yale Liver Center).
# [9] = Ptpn11D61G/+ mice, P56, n = 9, Mean ± SEM
# [10] = WT mice, P56, n = 8, Mean ± SEM
compound,measurement,setting,value
"Cc1nc(Nc2ncc(C(=O)Nc3c(C)cccc3Cl)s2)cc(N2CCN(CCO)CC2)n1.O [Dasatinib, N-(2-chloro-6-methylphenyl)-2-[[6-[4-(2-hydroxyethyl)-1-piperazinyl]-2-methyl-4-pyrimidinyl]amino]-5-thiazole carboxamide monohydrate]",adverse effects,"[1]; mouse, in vivo, ip, 0.1 mg/kg",no observable adverse effects
same,Dead pups,"[1]; prenatal dasatinib 0.1 mg/kg, number of pups",4
same,embryonic lethality,[1]; prenatal treatment at 0.5 and 1.0 mg/kg/per day i.p.,embryonic lethality
same,cardiac fibrosis at the histological level,Ptpn11^D61G/+ mice [2]; P56,markedly reduced
same,"pathologic cardiac phenotypes (heart weight, dilated cardiomyopathy, myofibrillar disorganization)","Ptpn11^D61G/+ mice [2]; P56, monohydrate",profound reversal; also recorded: rescued
same,aortic blood pressure and left ventricular pressure,"[3]; NS mice, P56",significantly restored
same,+dp/dt,[3]; [9],7718 ± 498 mmHg/s
same,Diastolic pressure,[3]; [9],84.0 ± 3.5 mmHg
same,End diastolic pressure,[3]; [9],11.1 ± 0.7 mmHg
same,Left ventricle pressure,[3]; [9],127.9 ± 4.5 mmHg
same,Mean arterial pressure,[3]; [9],96.8 ± 4.2 mmHg
same,Pulse pressure,[3]; [9],63.7 ± 4.4 mmHg
same,Systolic pressure,[3]; [9],129.3 ± 6.2 mmHg
same,−dp/dt,[3]; [9],−6189 ± 626 mmHg/s
same,+dp/dt,[3]; [10],8626 ± 476 mmHg/s
same,Diastolic pressure,[3]; [10],95.1 ± 4.2 mmHg
same,End diastolic pressure,[3]; [10],8.7 ± 1.3 mmHg
same,Left ventricle pressure,[3]; [10],136.5 ± 2.5 mmHg
same,Mean arterial pressure,[3]; [10],112.1 ± 4.0 mmHg
same,Pulse pressure,[3]; [10],65.2 ± 4.6 mmHg
same,Systolic pressure,[3]; [10],146.2 ± 5.1 mmHg
same,−dp/dt,[3]; [10],−6529 ± 847 mmHg/s
same,"growth (body weight, body length)",Ptpn11^D61G/+ mice [4],did not improve
same,facial dismorphism,Ptpn11^D61G/+ mice [4]; monohydrate,did not improve
same,splenomegaly,Ptpn11^D61G/+ mice [4]; monohydrate,did not improve; also recorded: did not rescue
same,SERCA2A protein expression in cardiac tissue,Ptpn11^D61G/+ mice [5],completely normalized
same,TnT and TnI expression levels in heart,Ptpn11^D61G/+ mice [5],returned to those equivalent to vehicle-treated wild type mice
same,dose of therapeutic effects in humans,[6]; humans,~2 mg/kg
same,equivalent dose in mice of the human therapeutic dose,[6]; mice equivalent,~24 mg/kg
same,Anp and Bnp mRNA expression,Ptpn11^D61G/+ mice [7],completely rescued
same,MYH6 expression,Ptpn11^D61G/+ mice [7],equivalent level of MYH6 expression in wild type and NS mice
same,MYH7 expression,Ptpn11^D61G/+ mice [7],completely normalized
same,mRNA expression of fibrotic genes Col1a2 and Col3a1,Ptpn11^D61G/+ mice [7],reduced mRNA expression levels
same,liver damage,[8],no evidence of liver damage; also recorded: does not induce liver damage
